The results in this text go back to ChEMBL document CHEMBL3046363, “Synthesis, fungicidal, and insecticidal activities of beta-Methoxyacrylate-containing N-acetyl pyrazoline derivatives” (J Agric Food Chem, 2008).

Usually LC50 stands for the concentration lethal to half of the exposed cells or organisms. As usually defined, the mortality is the percentage killed. The term inhibition in vivo denotes the relative decrease from the control value, in per cent. As a reminder, the IC50 is the point on the concentration scale where inhibition reaches its midpoint.

Molecules are shown by their SMILES. ≈ marks a conversion by molar mass, not a printed value. Calls of active or inactive are those of the source. The rule behind the calls is not given here.

Test [1] relates to Mythimna separata. Briefly: In vivo insecticidal activity against Mythimna separata (Oriental armyworm) assessed as mortality after 72 hr. The test is classed as functional.
The test system of test [2] is Mythimna separata. Briefly: In vivo insecticidal activity against Mythimna separata (Oriental armyworm) assessed as mortality at 500 ug/ml after 72 hr. The test is classed as functional.
Test [3] has as its system Tetranychus cinnabarinus. Briefly: In vivo insecticidal activity against Tetranychus cinnabarinus (carmine spider mite) assessed as mortality at 500 ug/ml after 72 hr. Type of test: functional.
Test [4] deals with Aphis medicaginis. Briefly: In vivo insecticidal activity against Aphis medicaginis assessed as mortality at 1 g/l after 72 hr. Type of test: functional, organism-based.
The test system of test [5] is Nilaparvata lugens. In words: In vivo insecticidal activity against fifth instar larval stage of Nilaparvata lugens (brown planthopper) in […] rice seedlings assessed as mortality at 1 g/l treated for 5 secs before larval infestation measured after 72 hr. Type of test: functional, organism-based.
Test [6] has as its system Rhizoctonia solani. In words: In vivo fungicidal activity against Rhizoctonia solani infected in cucumber plants assessed as inhibition of disease symptoms at 200 ug/ml treated one day prior to fungal spore inoculation measured after one week. Type of test: functional, organism-based.
In test [7] the test system is Botrytis cinerea. Briefly: In vivo fungicidal activity against Botryotinia fuckeliana infected in cucumber plants assessed as inhibition of disease symptoms at 200 ug/ml treated one day prior to fungal spore inoculation measured after one week. The test is classed as functional, organism-based.
Test [8] relates to Podosphaera fuliginea. Briefly: In vivo fungicidal activity against Podosphaera fuliginea infected cucumber plants assessed as inhibition of disease symptoms at 200 ug/ml treated one day prior to fungal spore inoculation measured after one week. The test is classed as functional.
The test system of test [9] is Pseudoperonospora cubensis. In words: In vivo fungicidal activity against Pseudoperonospora cubensis infected in cucumber plants assessed as inhibition of disease symptoms at 200 ug/ml treated one day prior to fungal spore inoculation measured after one week. Type of test: functional.
Test [10] relates to Podosphaera fuliginea. In words: In vivo fungicidal activity against Podosphaera fuliginea infected cucumber plants assessed as inhibition of disease symptoms treated one day prior to fungal spore inoculation measured after one week. Type of test: functional, organism-based.
For test [11], the system named is Pseudoperonospora cubensis. In words: In vivo fungicidal activity against Pseudoperonospora cubensis infected in cucumber plants assessed as inhibition of disease symptoms treated one day prior to fungal spore inoculation measured after one week. The test is classed as functional, organism-based.

As to `CCOCn1c(-c2ccc(Cl)cc2)c(C#N)c(Br)c1C(F)(F)F` [CHLORFENAPYR], the LC50 in test [1] worked out at 18.5 µg/mL (≈ 45.4 µM). The mortality at 500 µg/mL in test [2] amounted to 100%.

As to `CO/C=C(/C(=O)OC)c1ccccc1COc1cccc(C2=NN(C(C)=O)C(c3ccc(Cl)cc3)C2)c1` (stereo not drawn), the mortality at 500 µg/mL in test [3] is less than 60%; in [2], 100%. Moreover, the mortality result in test [4] and in [5] was “inactive” each time. Also, the inhibition entry in test [6] and in test [7] was “inactive” in each case. Moreover, the inhibition in vivo at 200 µg/mL in test [8] was less than 60%; in test [9] it was no less than 60%.

As to `CO/N=C(/C(=O)OC)c1ccccc1COc1ccccc1C` [KRESOXIM-METHYL], the figures for the half-maximal inhibitory concentration (IC50) in test [10] and in test [11] were 1.6 µg/mL (≈ 5.11 µM) and 24.1 µg/mL (≈ 76.9 µM), respectively. The inhibition in vivo at 200 µg/mL in test [8] is 100%; in [9], no less than 90%.

For the compound `CO/C=C(/C(=O)OC)c1ccccc1COc1cccc(C2=NN(C(C)=O)C(c3ccc4c(c3)OCO4)C2)c1` (stereo not drawn), the figures for the mortality at 500 µg/mL in test [3] and in test [2] were less than 60% and 100%, respectively. The LC50 in [1] amounted to 26.6 µg/mL (≈ 50.3 µM). The mortality entry in test [4] and in test [5] was “inactive” in each case. Besides, the IC50 in test [10] was 57.6 µg/mL (≈ 109 µM); in [11] it was 26.6 µg/mL (≈ 50.3 µM). Further, the inhibition entry in [6] and in test [7] was “inactive” in each case. Besides, the figures for the inhibition in vivo at 200 µg/mL in [8] and in [9] were no less than 90% and 100%, respectively.

Regarding `CCc1ccc(C2CC(c3ccccc3OCc3ccccc3/C(=C\OC)C(=O)OC)=NN2C(C)=O)cc1` (stereo not drawn), the values for the mortality at 500 µg/mL in test [3] and in test [2] were less than 60% and 100%, respectively. Moreover, the mortality entry in test [4] and in test [5] was “inactive” throughout. Also, the inhibition entry in test [6] and in test [7] was “inactive” in each case. Also, the inhibition in vivo at 200 µg/mL in test [8] is less than 60%; in test [9], 100%.
